Measured values from US20200157092A1, “[1,2,4]-TRIAZOLO [1,5-A]-PYRIMIDINYL DERIVATIVES SUBSTITUTED WITH PIPERIDINE, […] […] OGA INHIBITORS” (priority 2017, published 2020).
Where two headings read alike, the source gives them in different places.

Key:
[1] = target: T1, recombinant human Meningioma Expressed Antigen 5 (MGEA5), also referred to as O-GlcNAcase (OGA) (Homo sapiens, UniProt O60502); experiment: OGA biochemical assay: inhibition of FM-GlcNAc hydrolysis, fluorescence; protocol A (10 nM OGA, 1 h) or protocol B (2 nM OGA, 6 h); conditions: for IC50: read-out: Enzymatic hOGA, pIC50 (converted)
T1 construct: Full length OGA enzyme was purchased at OriGene (cat # TP322411); purchased OriGene TP322411
T1 sequence (O60502 1-916): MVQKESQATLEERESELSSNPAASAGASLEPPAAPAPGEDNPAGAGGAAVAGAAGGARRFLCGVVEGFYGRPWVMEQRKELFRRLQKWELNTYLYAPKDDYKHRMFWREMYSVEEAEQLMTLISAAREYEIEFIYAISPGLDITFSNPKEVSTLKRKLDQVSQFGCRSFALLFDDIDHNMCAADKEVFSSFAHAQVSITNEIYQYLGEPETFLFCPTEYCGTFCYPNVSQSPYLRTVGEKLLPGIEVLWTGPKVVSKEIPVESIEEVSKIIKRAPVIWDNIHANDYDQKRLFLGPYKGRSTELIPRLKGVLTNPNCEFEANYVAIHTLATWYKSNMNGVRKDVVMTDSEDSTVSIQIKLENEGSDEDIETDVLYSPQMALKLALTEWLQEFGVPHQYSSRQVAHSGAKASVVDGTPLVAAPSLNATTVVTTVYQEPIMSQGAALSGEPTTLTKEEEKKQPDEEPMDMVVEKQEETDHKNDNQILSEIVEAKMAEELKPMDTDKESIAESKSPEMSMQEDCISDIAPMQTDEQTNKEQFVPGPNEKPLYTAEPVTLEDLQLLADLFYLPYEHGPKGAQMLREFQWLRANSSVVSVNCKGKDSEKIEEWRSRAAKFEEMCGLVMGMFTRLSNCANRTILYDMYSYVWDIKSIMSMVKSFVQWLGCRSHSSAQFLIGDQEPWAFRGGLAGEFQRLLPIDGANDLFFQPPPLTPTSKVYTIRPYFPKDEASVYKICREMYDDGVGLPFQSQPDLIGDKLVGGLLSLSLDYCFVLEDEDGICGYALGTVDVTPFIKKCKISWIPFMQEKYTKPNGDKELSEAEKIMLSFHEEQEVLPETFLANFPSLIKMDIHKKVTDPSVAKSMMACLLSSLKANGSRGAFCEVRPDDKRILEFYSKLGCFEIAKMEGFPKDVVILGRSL
Method: The hydrolysis FM-GlcNAc (Marker Gene technologies, cat # M1485) results in the formation of ß-D-N-glucosamineacetate and fluorescein. The fluorescence of the latter can be measured at excitation wavelength 485 nm and emission wavelength 538 nm. An increase in enzyme activity results in an increase in fluorescence signal. Full length OGA enzyme was purchased at OriGene (cat # TP322411). The enzyme was stored in 25 mM Tris.HCl, pH 7.3, 100 mM glycine, 10% glycerol at −20° C. […] The assay was performed in 200 mM Citrate/phosphate buffer supplemented with 0.005% Tween-20. 35.6 g Na2HPO4 2 H2O (Sigma, # C0759) were dissolved in 1 L water to obtain a 200 mM solution. […] The buffer to stop the reaction consists of a 500 mM Carbonate buffer, pH 11.0. […] OGA was used at a 10 nM (protocol A) or 2 nM (protocol B) concentration and FM-GlcNAc at a 100 uM final concentration. Dilutions were prepared in assay buffer.
Plates were pre-incubated for 60 min at room temperature and then 2 μl FM-GlcNAc substrate mix added. […] Plates were briefly centrifuged for 1 min at 1000 rpm and incubate at room temperature for 1 h (10 nM OGA, protocol A) or 6 h (2 nM OGA, protocol B). To stop the reaction 5 μl STOP buffer were added and plates centrifuge again 1 min at 1000 rpm. Fluorescence was quantified in the Thermo Scientific Fluoroskan Ascent or the PerkinElmer EnVision with excitation wavelength 485 nm and emission wavelength 538 nm.
For analysis a best-fit curve is fitted by a minimum sum of squares method. From this an IC50 value and Hill coefficient was obtained. High control (no inhibitor) and low control (saturating concentrations of standard inhibitor) were used to define the minimum and maximum values.

[2] = target: T2, OGA (Homo sapiens, UniProt O60502); experiment: OGA cellular assay: immunocytochemical detection of O-GlcNAcylated proteins in HEK293 cells inducible for P301L mutant human Tau; type: cell-based; conditions: for Emax: HEK293, read-out: Cellular Emax (%); for Cellular hOGA; pEC50 / Cellular Emax (%): HEK293 cells inducible for P301L mutant human Tau, 6 hours incubation; for Cellular Emax (%): maximum = Thiamet G 200 uM
T2 construct: HEK293 cells inducible for P301L mutant human Tau (isoform 2N4R) were established at Janssen; endogenous in cells; host or cells: HEK293 cells inducible for P301L mutant human Tau (2N4R)
T2 sequence (O60502 1-916): T1 sequence (O60502 1-916)
From the text: HEK293 cells inducible for P301L mutant human Tau (isoform 2N4R) were established at Janssen. Thiamet-G was used for both plate validation (high control) and as reference compound (reference EC50 assay validation). […] Inhibition of OGA will result in an increase of O-GlcNAcylated protein levels resulting in an increased signal in the experiment. […] ICC pictures are imaged with a Perkin Elmer Opera Phenix plate microscope and quantified with the provided software Perkin Elmer Harmony 4.1.
Cells were propagated in DMEM high Glucose (Sigma, # D5796) following standard procedures. […] At the day of compound test medium from assay plates was removed and replenished with 90 μl of fresh Assay Medium. 10 μl of compounds at a 10 fold final concentration were added to the wells. Plates were centrifuged shortly before incubation in the cell incubator for 6 hours. DMSO concentration was set to 0.2%. Medium is discarded by applying vacuum. For staining of cells medium was removed and cells washed once with 100 μl D-PBS (Sigma, # D8537). From next step onwards unless other stated assay volume was always 50 μl and incubation was performed without agitation and at room temperature. […] Before analysis samples were washed 2 times manually for 5 minutes in ICC base buffer.
Imaging is performed using Perkin Elmer Phenix Opera using a water 20× objective and recording 9 fields per well. Intensity readout at 488 nm is used as a measure of O-GlcNAcylation level of total proteins in wells. To assess potential toxicity of compounds nuclei were counted using the Hoechst staining. IC50-values are calculated using parametric non-linear regression model fitting. As a maximum inhibition Thiamet G at a 200 uM concentration is present on each plate. In addition, a concentration response of Thiamet G is calculated on each plate.

[3] = Enzymatic protocol A (10 nM OGA, 1 h)
[4] = Enzymatic protocol B (2 nM OGA, 6 h)

Compound | melting point [°C] | Emax [1, 3] [%] | IC50 [1, 3] [nM] | Emax [1, 4] [%] | IC50 [1, 4] [nM] | EC50 [2] [nM] | Emax [2] [%] | further results
CC(=O)Nc1ncc(S(=O)(=O)N2CCCC(c3cc(C(F)F)n4ccnc4n3)C2)s1 (racemic) [Product 23] | 280.13 | 102 | 295 |  |  |  |  | 
CC(=O)Nc1ncc(S(=O)(=O)N2CC[C@H](C)[C@@H](c3cc(C(F)F)nc4ncnn34)C2)s1 [Product 7] | 264.57 | 82.2 | 2750 |  |  |  |  | 
CC(=O)Nc1ncc(CN2CCC(c3cc(C(F)(F)F)nc4ncnn34)C2)s1 (centres unmarked) [Product 20] | 214.29 |  |  | 93.7 | 603 |  |  | 
CC(=O)Nc1ncc(S(=O)(=O)N2CCC[C@@H](c3cc(C(F)F)n4ncnc4n3)C2)s1 [Product 22] | 263.43 | 99.1 | 617 |  |  |  |  | 
CC(=O)Nc1ncc(CN2CCOC(c3cc(C(F)F)nc4ncnn34)C2)s1 (centres unmarked) [Product 34] | 260.21 | 97.4 | 1580 |  |  |  |  | 
CC(=O)Nc1ncc(CN2CCOC(c3cc(C)nc4ncnn34)C2)s1 (centres unmarked) [Product 35] | 264.26 | 98.3 | 1580 | 86.7 | 1480 |  |  | 
CC(=O)Nc1ncc(CN2CCOC(c3ccnc4ncnn34)C2)s1 (centres unmarked) [Product 36] | 251.21 |  |  | 93.6 | 741 |  |  | 
CC(=O)Nc1ncc(CN2CCOC(c3cc(C(F)(F)F)nc4ncnn34)C2)s1 (centres unmarked) [Product 37] | 242.64 |  |  | 79.6 | 2690 |  |  | 
CC(=O)Nc1ncc(S(=O)(=O)N2CCOC(c3cc(C(F)F)n4ncnc4n3)C2)s1 (centres unmarked) [Product 38] | 229.94 | 101 | 468 |  |  |  |  | 
CC(=O)Nc1ncc(CN2CCOC(c3cc(C(F)F)n4ncnc4n3)C2)s1 (centres unmarked) [Product 39] | 209.69 | 88.4 | 3470 |  |  |  |  | 
CC(=O)Nc1ncc(S(=O)(=O)N2CCNC(c3cc(C)nc4ncnn34)C2)s1 (centres unmarked) [Product 40] | 226.91 | 100 | 16.6 |  |  |  |  | 
CC(=O)Nc1ncc(CN2CCNC(c3cc(C)nc4ncnn34)C2)s1 (centres unmarked) [Product 42] | 228.95 |  |  | 93.6 | 437 |  |  | 
CC(=O)Nc1ncc(CN2CCC(Cc3cccc4nccn34)C2)s1 (centres unmarked) [Product 50] |  |  |  | 99.6 | 9.33 | 33.9 | 103 | 
Cc1cc(C2CCCN(C(C)c3ccc4c(c3)OCO4)C2)n2ccnc2n1 (centres unmarked) [Product 52] |  |  |  | 101 | 18.6 | 2630 | 131 | 
CC(c1ccc2c(c1)OCO2)N1CCOC(c2ccnc3ncnn23)C1 (centres unmarked) [Product 55] |  |  |  | 51.8 | 9550 | > 10000 | 1.01 | 
c1cc(CC2CCN(Cc3ccc4nccnc4c3)C2)n2ccnc2c1 (centres unmarked) [Product 58] |  |  |  | 97.3 | 245 | > 10000 | 4.1 | 
CC(=O)Nc1ncc(CN2CCC3(CC3)C(c3cc(C(F)F)nc4ncnn34)C2)s1 (centres unmarked) [Product 64] |  | 101 | 69.2 |  |  | 4790 | 84.5 | 
CC(=O)Nc1ncc(CN2CCCC(Cc3cccc4nccn34)C2)s1 (centres unmarked) [Product 66] |  |  |  | 101 | 29.5 | 18.2 | 97.3 | 
CC(=O)Nc1ncc(CN2CCC(Cc3cnc4ccn(C)c4c3)C2)s1 (centres unmarked) [Product 69] |  |  |  | 99.6 | 3.02 | 23.4 | 108 | 
CC(=O)Nc1ncc(CN2CCCC(c3ccc4ccn(C)c4n3)C2)s1 (centres unmarked) [Product 73] |  |  |  | 101 | 81.3 | 195 | 87.2 | 
CC(=O)Nc1ncc(CN2CCCC(c3cc(C)nc4ccn(C)c34)C2)s1 (centres unmarked) [Product 86] |  |  |  |  |  |  |  | Enzymatic Emax (%) [1, 4]: 102.93%; Enzymatic hOGA; pIC50 [1, 4]: 8.38; Cellular hOGA; pEC50 [2]: 7.18; Cellular Emax (%) [2]: 100.91%
CC(=O)Nc1ncc(CN2CCCC(c3nc(C)cc4ccn(C)c34)C2)s1 (centres unmarked) [Product 88] |  |  |  | 101 | 83.2 | 407 | 57.4 | 
CC(=O)Nc1ncc(CN2CCCC(c3nc(C)cc4cc[nH]c34)C2)s1 (centres unmarked) [Product 91] |  |  |  | 103 | 95.5 | 44.7 | 84.3 | 
CC(=O)Nc1ncc(CN2CCCC(c3nc(C)cc4cc[nH]c34)C2)s1 (centres unmarked) [Product 93] |  |  |  |  |  |  |  | Enzymatic Emax (%) [1, 4]: 101.08%; Enzymatic hOGA; pIC50 [1, 4]: 7.35; Cellular hOGA; pEC50 [2]: 7.61; Cellular Emax (%) [2]: 87.83%
CC(=O)Nc1ncc(CN2CCCC(c3cc(C)nc4cc[nH]c34)C2)s1 (centres unmarked) [Product 96] |  |  |  |  |  |  |  | Enzymatic Emax (%) [1, 4]: 99.16%; Enzymatic hOGA; pIC50 [1, 4]: 6.15; Cellular hOGA; pEC50 [2]: 6.40; Cellular Emax (%) [2]: 70.38%
CC(=O)Nc1ncc(CN2CCCC(Cc3cnc4cc[nH]c4c3)C2)s1 (centres unmarked) [Product 97] |  |  |  | 102 | 1.74 | 7.76 | 109 | 
CC(=O)Nc1ncc(CN2CCCC(c3ccc4c(ccn4C)n3)C2)s1 (centres unmarked) [Product 100] |  |  |  | 98.5 | 309 | 195 | 85.7 | 
CC(=O)Nc1ncc(CN2CCCC(c3cc4ccn(C)c4nc3C)C2)s1 (centres unmarked) [Product 101] |  |  |  | 102 | 6.61 | 9.33 | 114 | 
CC(=O)Nc1ncc(CN2CCCC(c3cnc4cc[nH]c4c3)C2)s1 (centres unmarked) [Product 106] |  |  |  | 101 | 275 | 282 | 71 | 
CC(=O)Nc1ncc(CN2CC[C@H](Cc3cccc4nccn34)C2)s1 [Product 107] |  |  |  | 101 | 8.13 | 55 | 82 | 
